# Data: paper PMC10404671, “Deciphering the biosynthesis of a novel lipid in Mycobacterium tuberculosis expands the known roles of the nitroreductase superfamily” (The Journal of Biological Chemistry, 2023)
# Experiments:
# TyzB = target: T1, TyzB (Mycobacterium tuberculosis, UniProt P95234)
# T1 construct: gene moeW
# TyzA = target: T2, TyzA (Mycobacterium tuberculosis, UniProt P95232)
# T2 construct: gene Rv2336
# TyzC = target: T3, TyzC (Mycobacterium tuberculosis, UniProt P95233)
# T3 construct: gene Rv2337c
# T3 sequence (P95233 entry or part of it): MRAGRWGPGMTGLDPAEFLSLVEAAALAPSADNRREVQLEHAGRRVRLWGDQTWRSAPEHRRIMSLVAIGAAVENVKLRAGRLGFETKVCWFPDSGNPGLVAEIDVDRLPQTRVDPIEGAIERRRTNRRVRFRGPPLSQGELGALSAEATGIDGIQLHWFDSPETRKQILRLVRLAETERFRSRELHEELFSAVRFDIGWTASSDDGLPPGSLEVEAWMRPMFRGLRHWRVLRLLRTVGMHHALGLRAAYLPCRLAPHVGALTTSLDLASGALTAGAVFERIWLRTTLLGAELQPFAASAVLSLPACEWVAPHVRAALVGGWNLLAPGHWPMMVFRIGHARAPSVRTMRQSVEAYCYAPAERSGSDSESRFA
# T2 sequence (P95232 entry or part of it): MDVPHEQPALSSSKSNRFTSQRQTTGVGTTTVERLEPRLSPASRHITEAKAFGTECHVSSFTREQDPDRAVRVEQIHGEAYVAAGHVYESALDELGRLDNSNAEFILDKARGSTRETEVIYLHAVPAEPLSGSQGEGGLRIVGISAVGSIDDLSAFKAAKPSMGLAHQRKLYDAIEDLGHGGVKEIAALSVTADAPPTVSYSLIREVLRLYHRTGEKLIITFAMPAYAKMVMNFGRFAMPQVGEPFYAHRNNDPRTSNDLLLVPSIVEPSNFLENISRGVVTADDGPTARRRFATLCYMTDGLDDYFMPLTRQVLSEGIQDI
# T1 sequence (P95234 entry or part of it): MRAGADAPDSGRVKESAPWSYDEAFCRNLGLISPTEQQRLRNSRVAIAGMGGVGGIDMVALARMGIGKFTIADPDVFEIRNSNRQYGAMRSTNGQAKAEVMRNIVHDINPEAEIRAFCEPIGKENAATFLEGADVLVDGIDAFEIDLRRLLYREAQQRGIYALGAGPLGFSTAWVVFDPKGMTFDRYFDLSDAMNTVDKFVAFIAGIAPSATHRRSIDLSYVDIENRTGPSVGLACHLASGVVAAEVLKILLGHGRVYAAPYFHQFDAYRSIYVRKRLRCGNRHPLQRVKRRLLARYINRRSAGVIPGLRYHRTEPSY
compound,measurement,setting,value
Nc1ncnc2c1ncn2[C@@H]1O[C@H](COP(=O)(O)OP(=O)(O)OP(=O)(O)O)[C@@H](O)[C@H]1O [ATP],"LC-QTOF endpoint assay, purified TyzA plus RHA1 pTip-TyzBC lysate",TyzB,"performed ATP-dependent cyclization and O2-dependent desaturation of C12:0-L-Tyr, respectively"
CCCCCCCCCCCC(=O)SCCNC(=O)CCNC(=O)[C@H](O)C(C)(C)COP(=O)(O)OP(=O)(O)OC[C@H]1O[C@@H](n2cnc3c(N)ncnc32)[C@H](O)[C@@H]1OP(=O)(O)O [C12:0-CoA],KiS,TyzA,450 ± 90 µM
CCCCCCCCCCCC(=O)N[C@@H](Cc1ccc(O)cc1)C(=O)O [C12:0-L-Tyr],"LC-QTOF endpoint assay, purified TyzA plus RHA1 pTip-TyzBC lysate",TyzC,"performed ATP-dependent cyclization and O2-dependent desaturation of C12:0-L-Tyr, respectively"
